Experimental findings from patent publication US10195204B2, “Methods of treating hemoglobinopathies” (DUKE UNIVERSITY, priority 2011, dated 2019) are described below.

Common to all, as to format: cell-based, human
Assay [1] deals with ICAM-4 (LW) phosphorylation. The assay is described as follows: 32P labeling, ICAM-4 immunoprecipitation and detection of phosphorylation in SS RBCs. As for the experimental part: Cells were then washed 4 times. ICAM-4 protein immunoprecipitation, and total and phospho-ICAM-4 detection were performed as previously described in detail.^4 To further confirm that the immunoprecipitates were specific for ICAM-4, anti-ICAM-4 mAb and the negative control immunoglobulin P3 were used to immunoprecipitate ICAM-4 from non-radiolabeled SS RBCs incubated in the presence or absence of epinephrine. Blots were then immunostained with anti-ICAM-4 mAb.

Assay [2] concerns SS RBC adhesion to HUVECs. The assay is described as follows: Flow chamber adhesion of SS RBCs to non-activated HUVECs. The settings on record: for mean decrease in SS RBC adhesion after 30 min exposure: 30 min vs 1 min epinephrine. As for the experimental part: Cells were then washed three times with 5 ml PBS with Ca^2+ and Mg^2+. Prior to adhesion assays, washed treated SS RBCs were labeled with PKH 26 red fluorescent cell linker kit (Sigma-Aldrich, St. Louis, Mo.), following the manufacturer's instructions. […] The flow chamber was mounted on the stage of an inverted phase contrast microscope (Diaphot, Nikon Inc., Melville, N.Y.) connected to a thermoplate (Tokai Hit Co., Ltd., Japan) set at 37° C. […] Before exposure to flow, a minimum of three fields at each of seven different locations along a line oriented normal to future flow were examined for the total number of fluorescent cells. Fluid flow (HBSS with Ca^2+, Mg^2+) was then started using a calibrated syringe pump. After exposure to flow, the fields were again examined and the number of adherent cells counted. The fraction of adherent cells was presented as (number of cells attached after exposure to flow)/(cells present per field before flow). The wall shear stress was calculated as: [formula] τw=wall shear stress (dyne/cm^2); Q=volumetric flow rate (cm^3/s); μ is media viscosity, w is the width of the flow channel, and H(x) is the height of the flow chamber as a function of position along the microscope slide. Several investigators have shown that blood flow in small vessels may be continuous, with shear stresses of 1-2 dynes/cm^2, or flow may be intermittent. Our data were obtained using both intermittent and continuous flow conditions.

In assay [3] the test system is AA RBC membrane ghost phosphopeptides. Kind of assay: Label-free quantitative phosphoproteomic analysis of normal (AA) RBC membrane ghosts. The procedure:
(§1) Ghosted RBCs were spun at 14,000 rpm for 15 min at 4° C. to pellet membranes. Membrane pellets were washed with 1 mL 50 mM ammonium bicarbonate (pH 8.0) with vortexing and were then spun at 14,000 rpm for 30 min at 4° C. The supernatant was then removed and 500 μL of 50 mM ammonium bicarbonate with μL 0.2% acid-labile surfactant (ALS-1) in 50 mM ammonium bicarbonate (pH 8.0) was added. Samples were subjected to probe sonication three-times for 5 sec with cooling on ice between and insoluble material was cleared by centrifugation at 14,000 rpm for 30 mins at 4° C. Samples were normalized to approximately 2 μg/μl following a micro-Bradford assay (Pierce Bioscience), and were reduced with a final concentration of 10 mM dithiothreitol at 80° C. for 20 min. Samples were then alkylated with a final concentration of 20 mM iodoacetamide at room temperature for 45 min and trypsin was added to a final ratio of 1-to-50 (w/w) enzyme-to-protein and allowed to digest at 37° C. for 18 hr. To remove ALS-1, samples were acidified to pH 2.0 with neat TFA, incubated at 60° C. for 2 hrs and spun at 14,000 rpm to remove hydrolyzed ALS-1. Samples were either subjected directly to LC-MS analysis or subjected to a TiO2 based phosphopeptide enriched protocol.
To enrich for phosphorylated peptides prior to LC-MS analysis, either 1,125 μg and 970 μg of total digested protein from RBC ghosts co-incubated with recombinant active ERK2 experiments and experiments using epinephrine-treated cells, respectively, were brought to near dryness using vacuum centrifugation and then resuspended in 200 μL of 80% acetonitrile, 1% TFA, 50 mg/ml MassPrep Enhancer (pH 2.5) (Waters Corp. Milford, Mass.). Samples were loaded onto an in-house packed TiO2 spin column (Protea Biosciences) with a 562 μg or 485 μg binding capacity for active ERK2 treated or epinephrine treated experiments, respectively. Samples were washed twice with 200 μL 80% acetonitrile, 1% TFA, 50 mg/ml MassPrep Enhancer (pH 2.5) followed by two washes with 200 μL 80% acetonitrile, 1% TFA (pH 2.5). Retained peptides were eluted twice with 100 μL 20% acetonitrile, 5% aqueous ammonia (pH 10.0), acidified to pH 3 with neat formic acid and then brought to dryness using vacuum centrifugation. […]
MS data from each phosphopeptide enriched sample was acquired on a Thermo LTQ-Orbitrap XL mass spectrometer operating in positive-ion mode with an electrospray voltage of 2.0 kV with real-time lockmass correction on ambiant polycyclodimethylsiloxane (m/z 445.120025) enabled. […] Each sample was analyzed four-times, one of which was used for additional qualitative identifications only and was not included in the quantitative analysis, with product ions above a threshold of 500 counts were acquired for the top 5 most intense ions in the linear ion trap. […]

The test system of assay [4] is SS RBC membrane ghost phosphopeptides. Kind of assay: Label-free quantitative phosphoproteomic analysis of SS RBC membrane ghosts. As for the experimental part: as §1
To enrich for phosphorylated peptides prior to LC-MS analysis, either 1,125 μg and 970 μg of total digested protein from RBC ghosts co-incubated with recombinant active ERK2 experiments and experiments using epinephrine-treated cells, respectively, were brought to near dryness using vacuum centrifugation and then resuspended in 200 μL of 80% acetonitrile, 1% TFA, 50 mg/ml MassPrep Enhancer (pH 2.5) (Waters Corp. Milford, Mass.). Samples were loaded onto an in-house packed TiO2 spin column (Protea Biosciences) with a 562 μg or 485 μg binding capacity for active ERK2 treated or epinephrine treated experiments, respectively. Samples were washed twice with 200 μL 80% acetonitrile, 1% TFA, 50 mg/ml MassPrep Enhancer (pH 2.5) followed by two washes with 200 μL 80% acetonitrile, 1% TFA (pH 2.5). Retained peptides were eluted twice with 100 μL 20% acetonitrile, 5% aqueous ammonia (pH 10.0), acidified to pH 3 with neat formic acid and then brought to dryness using vacuum centrifugation. Prior to LC-MS analysis, each sample was resuspended in 20 μL 2% acetonitrile, 0.1% TFA, 25 mM citric acid (pH 2.5).
Chromatographic separation of phosphopeptide enriched or non-enriched samples was performed on a Waters NanoAquity UPLC equipped with a 1.7 μm BEH130 C1875 μm I.D.×250 mm reversed-phase column. The mobile phase consisted of (A) 0.1% formic acid in water and (B) 0.1% formic acid in acetonitrile. Five μL injections of each sample were trapped for 5 min on a 5 μm Symmetry C18 180 μm I.D.×20 mm column at 20 μl/min in 99.9% A. The analytical column was then switched in-line and the mobile phase was held for 5 min at 5% B before applying a linear elution gradient of 5% B to 40% B or 5% B to 30% B over 90 min at 300 nL/min for ERK2 treated experiments or epinephrine treated experiments, respectively. The analytical column was connected to fused silica PicoTip emitter (New Objective, Cambridge, Mass.) with a 10 μm tip orifice and coupled to the mass spectrometer through an electrospray interface.
MS data from each phosphopeptide enriched sample was acquired on a Thermo LTQ-Orbitrap XL mass spectrometer operating in positive-ion mode with an electrospray voltage of 2.0 kV with real-time lockmass correction on ambiant polycyclodimethylsiloxane (m/z 445.120025) enabled. The instrument was set to acquire a precursor MS scan from m/z 400-2000 with r=60,000 at m/z 400 and a target AGC setting of 1e6 ions. Each sample was analyzed four-times, one of which was used for additional qualitative identifications only and was not included in the quantitative analysis, with product ions above a threshold of 500 counts were acquired for the top 5 most intense ions in the linear ion trap. […]

Where [5] appears, read: shear stress 2 dynes/cm^2, intermittent flow.
Setting [6] is: SS RBCs, epinephrine 30 min vs 1 min.
Where [7] appears, read: SS RBCs vs SS RBCs treated with U0126.

As for `CNC[C@H](O)c1ccc(O)c(O)c1` [epinephrine], in assay [1] (epinephrine 1 min in the presence of SPI (FIG. 4F)), the “ICAM-4 phosphorylation over sham-treated cells” value is recorded as 1.84±0.15 fold. For the same compound, in assay [1] (epinephrine 30 min in the presence of SPI), the “ICAM-4 phosphorylation vs 1 min exposure” value is on record as “significantly diminished”. The “increase in ICAM-4 phosphorylation over sham-treated SS RBCs” value in assay [1] (epinephrine in the presence of SPI) amounted to 7.4±1.07 fold. Moreover, the “mean decrease in SS RBC adhesion after 30 min exposure” value in assay [2] (constant flow) was 73±4.7%; in assay [2] (intermittent flow) it was 56±1.5%. For the same compound, the “effect on SS RBC adhesion to HUVECs” value in assay [2] (setting [5]) is listed as “significantly up-regulated”. Besides, in assay [3] (AA RBCs, epinephrine 30 min vs 1 min), the “change in phosphorylation of the CAP1 serine” value is on record as “+1.4 fold”. In addition, the “change in phosphorylation of serine 310 within CAP1” value in assay [4] (setting [6]) is −4.3 fold. Further, in assay [4] (setting [6]), the “change in phosphorylation of threonine 307 within CAP1” value is recorded as −1.4 fold.

Take `N#CC(=C(/N)Sc1ccccc1N)/C(C#N)=C(\N)Sc1ccccc1N` [U0126]: the “effect on combined effect of epinephrine and SPI on ICAM-4 phosphorylation” value in assay [1] (SS RBCs preincubated with inhibitor) is listed as “significantly decreased”. The “inhibition of SS RBC adhesion to non-activated HUVECs vs sham-treated SS RBCs” value in assay [2] (U0126 alone) is 91±4.6%. Also, in assay [2] (shear stress 2 dynes/cm^2, compared to forskolin alone), the “inhibition of forskolin-increased SS RBC adhesion to HUVECs” value worked out at 83±4%. In assay [2] (setting [5]), the “effect on epinephrine-induced SS RBC adhesion to HUVECs” value is recorded as “completely inhibited”. In assay [3] (AA RBCs treated with U0126), the “effect on Ser540/Ser542 doubly phosphorylated peptide within protein 4.1” value is on record as “did not induce a decrease”. Besides, in assay [4] (SS RBCs treated with U0126), the “change of Ser540/Ser542 doubly phosphorylated peptide within protein 4.1” value is given as −1.7 fold. Moreover, in assay [4] (setting [7]), the “unique RBC membrane phosphopeptides significantly down-regulated” value came out at 36 and the “unique phosphoproteins carrying the down-regulated phosphopeptides” value is 22.
